Consider 22 molecules from patent publication US7566712B2, “Biaryl piperazinyl-pyridine analogues” (Neurogen Corporation, priority 2003, dated 2009).

For one test, the target named is T1, human capsaicin receptor (Homo sapiens, UniProt Q8NER1).
T1 construct: pBK-CMV expression construct encoding the full length human capsaicin receptor; expressed in transfected cells
T1 sequence (Q8NER1 whole entry): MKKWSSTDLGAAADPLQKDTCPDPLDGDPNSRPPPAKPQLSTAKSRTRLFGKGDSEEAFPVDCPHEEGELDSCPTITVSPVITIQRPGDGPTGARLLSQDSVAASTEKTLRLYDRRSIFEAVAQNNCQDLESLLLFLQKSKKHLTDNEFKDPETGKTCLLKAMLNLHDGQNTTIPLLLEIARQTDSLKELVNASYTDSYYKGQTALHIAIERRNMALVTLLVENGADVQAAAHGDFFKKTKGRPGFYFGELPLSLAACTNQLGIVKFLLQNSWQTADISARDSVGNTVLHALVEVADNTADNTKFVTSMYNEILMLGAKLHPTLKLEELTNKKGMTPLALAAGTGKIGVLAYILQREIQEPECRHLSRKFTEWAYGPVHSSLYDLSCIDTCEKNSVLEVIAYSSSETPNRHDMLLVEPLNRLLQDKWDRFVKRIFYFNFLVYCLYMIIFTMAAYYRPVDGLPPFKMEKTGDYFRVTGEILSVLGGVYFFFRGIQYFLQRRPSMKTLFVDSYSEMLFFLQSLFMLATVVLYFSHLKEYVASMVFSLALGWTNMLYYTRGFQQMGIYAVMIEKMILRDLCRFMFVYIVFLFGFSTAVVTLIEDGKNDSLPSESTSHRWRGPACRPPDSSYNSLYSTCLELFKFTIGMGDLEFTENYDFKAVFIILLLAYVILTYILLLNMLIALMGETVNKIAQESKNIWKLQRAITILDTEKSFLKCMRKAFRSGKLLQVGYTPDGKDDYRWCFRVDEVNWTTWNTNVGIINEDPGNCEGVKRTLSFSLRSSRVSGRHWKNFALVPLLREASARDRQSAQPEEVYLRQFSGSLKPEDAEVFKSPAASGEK
Nature of the test: Calcium mobilization assay, determination of antagonist activity (Example 6). In kind it is cell-based. The note with it: Table II; IC50 determined as described in Example 6. As to the method:
A cDNA encoding full length human capsaicin receptor (SEQ ID NO: 1, 2 or 3 of U.S. Pat. No. 6,482,611) was subcloned in the plasmid pBK-CMV (Stratagene, La Jolla, Calif.) for recombinant expression in mammalian cells.
Human embryonic kidney (HEK293) cells were transfected with the pBK-CMV expression construct encoding the full length human capsaicin receptor using standard methods. The transfected cells were selected for two weeks in media containing G418 (400 μg/ml) to obtain a pool of stably transfected cells. Independent clones were isolated from this pool by limiting dilution to obtain clonal stable cell lines for use in subsequent experiments.
This Example illustrates representative calcium mobilization assays for use in evaluating test compounds for agonist and antagonist activity.
Cells transfected with expression plasmids (as described in Example 4) and thereby expressing human capsaicin receptor are seeded and grown to 70-90% confluency in FALCON black-walled, clear-bottomed 96-well plates (#3904, BECTON-DICKINSON, Franklin Lakes, N.J.). The culture medium is emptied from the 96 well plates and FLUO-3 AM calcium sensitive dye (Molecular Probes, Eugene, Oreg.) is added to each well (dye solution: 1 mg FLUO-3 AM, 440 μL DMSO and 440 pi 20% pluronic acid in DMSO, diluted 1:250 in Krebs-Ringer HEPES (KRH) buffer (25 mM HEPES, 5 mM KCl, 0.96 mM NaH2PO4, 1 mM MgSO4, 2 mM CaCl2, 5 mM glucose, 1 mM probenecid, pH 7.4), 50 μl diluted solution per well). Plates are covered with aluminum foil and incubated at 37° C. for 1-2 hours in an environment containing 5% CO2. After the incubation, the dye is emptied from the plates, and the cells are washed once with KRH buffer, and resuspended in KRH buffer.
To measure the ability of a test compound to agonize or antagonize a calcium mobilization response in cells expressing capsaicin receptors to capsaicin or other vanilloid agonist, the EC50 of the agonist capsaicin is first determined. An additional 20 μl of KRH buffer and 1 μl DMSO is added to each well of cells, prepared as described above. 100 μl capsaicin in KRH buffer is automatically transferred by the FLIPR instrument to each well. Capsaicin-induced calcium mobilization is monitored using either FLUOROSKAN ASCENT (Labsystems; Franklin, Mass.) or FLIPR (fluorometric imaging plate reader system; Molecular Devices, Sunnyvale, Calif.) instruments. Data obtained between 30 and 60 seconds after agonist application are used to generate an 8-point concentration response curve, with final capsaicin concentrations of 1 nM to 3 μM. KALEIDAGRAPH software (Synergy Software, Reading, Pa.) is used to fit the data to the equation: y=a*(1/(1+(b/x)^c)) to determine the 50% excitatory concentration (EC50) for the response. In this equation, y is the maximum fluorescence signal, x is the concentration of the agonist or antagonist (in this case, capsaicin), a is the Emax, b corresponds to the EC50 value and c is the Hill coefficient. Determination of Agonist Activity
Test compounds are dissolved in DMSO, diluted in 20 μl KRH buffer so that the final concentration of test compounds in the assay well is between 1 μM and 5 μM, and added to cells prepared as described above. The 96 well plates containing prepared cells and test compounds are incubated in the dark, at room temperature for 0.5 to 6 hours. It is important that the incubation not continue beyond 6 hours. Just prior to determining the fluorescence response, 100 pi capsaicin in KRH buffer at twice the EC50 concentration determined as described above is automatically added by the FLIPR instrument to each well of the 96 well plate for a final sample volume of 200 μl and a final capsaicin concentration equal to the EC50. The final concentration of test compounds in the assay wells is between 1 μM and 5 μM. […]
Consider `CC(C)c1cccc(-c2cc(N3CCN(c4ncccc4C(F)(F)F)C[C@H]3C)nc(N3CCOCC3)n2)c1` [Example 501, 4-(4-(3-isopropylphenyl)-6-{(2R)-2-methyl-4-[3-(trifluoromethyl)pyridin-2-yl]piperazin-1-yl}pyrimidin-2-yl)morpholine], for which the IC50 (in general, the midpoint of a concentration-inhibition curve) is at most 1 µM.

With `Fc1ccc(-c2cc(N3CCN(c4ncccc4C(F)(F)F)CC3)nc(N3CCNCC3)n2)cc1Cl` [Example 546, 4-(3-chloro-4-fluorophenyl)-2-piperazin-1-yl-6-{4-[3-(trifluoromethyl)pyridin-2-yl]piperazin-1-yl}pyrimidine], the IC50 was at most 1 µM.

Regarding `CCc1cccc(-c2cc(N3CCN(c4ncccc4Cl)C[C@H]3C)nc(N3CCOCC3)n2)c1` [Example 517, 4-[4-[(2R)-4-(3-chloropyridin-2-yl)-2-methylpiperazin-1-yl]-6-(3-ethylphenyl)pyrimidin-2-yl]morpholine], the IC50 is at most 1 µM.

As to `C[C@@H]1CN(c2ncccc2Cl)CCN1c1cc(-c2cccc(Cl)c2)nc(N2CCOCC2)n1` [Example 481, 4-{4-(3-chlorophenyl)-6-[(2R)-4-(3-chloropyridin-2-yl)-2-methylpiperazin-1-yl]pyrimidin-2-yl}morpholine], the IC50 was at most 1 µM.

For `Cc1cccnc1N1CCN(c2cc(-c3cccc(Cl)c3)nc(N3CCOCC3)n2)[C@H](C)C1` [Example 480, 4-{4-(3-chlorophenyl)-6-[(2R)-2-methyl-4-(3-methylpyridin-2-yl)piperazin-1-yl]pyrimidin-2-yl}morpholine], the IC50 is at most 1 µM.

For `CCc1ccc(-c2cc(N3CCN(c4ncccc4C)C[C@H]3C)nc(N3CCOCC3)n2)cc1` [Example 510, 4-{4-(4-ethylphenyl)-6-[(2R)-2-methyl-4-(3-methylpyridin-2-yl)piperazin-1-yl]pyrimidin-2-yl}morpholine], the IC50 is at most 1 µM.

As to `CCCCN1CCN(c2nc(-c3cccc(Cl)c3)nc(N3CCN(c4ncccc4C(F)(F)F)CC3)n2)CC1` [Example 444, 2-(4-butylpiperazin-1-yl)-4-(3-chlorophenyl)-6-{4-[3-(trifluoromethyl)pyridin-2-yl]piperazin-1-yl}-1,3,5-triazine], the IC50 was at most 1 µM.

Staying with this test, now noted: Table II; IC50 determined as described in Example 6 (antagonist activity, calcium mobilization).
As to `C[C@@H]1CN(c2ncccc2F)CCN1c1cc(-c2ccc(F)c(Cl)c2)nc(Cl)n1` [Example 983, 2-chloro-4-(3-chloro-4-fluorophenyl)-6-[(2R)-4-(3-fluoropyridin-2-yl)-2-methylpiperazin-1-yl]pyrimidine], the IC50 was at most 1 µM.

Still in this test, the particulars now being: Table II; determined as described in Example 6 (antagonist activity); "*" = 1 micromolar or less.
Turning to `C[C@@H]1CCCN1c1cc(-c2ccc(F)c(Cl)c2)nc(N2CCN(c3ncccc3Cl)C[C@@H]2C)n1` [Example 948, 4-(3-chloro-4-fluorophenyl)-2-[(2S)-4-(3-chloropyridin-2-yl)-2-methylpiperazin-1-yl]-6-[(2R)-2-methylpyrrolidin-1-yl]pyrimidine], the IC50 was at most 1 µM.

`CC1CCCN1c1nc(-c2ccc(C#N)cc2)cc(N2CCN(c3ncccc3Cl)C[C@H]2C)n1` (stereo partly shown) [Example 859, 4-[6-[4-(3-chloropyridin-2-yl)-2-methylpiperazin-1-yl]-2-(2-methylpyrrolidin-1-yl)pyrimidin-4-yl]benzonitrile]: the IC50 is at most 1 µM.

`C[C@@H]1CN(c2ncccc2Cl)CCN1c1cc(-c2ccc(F)cc2)nc(S(C)(=O)=O)n1` (stereo in doubt) [Example 840, 4-[4-(3-chloropyridin-2-yl)-2-methylpiperazin-1-yl]-6-(4-fluorophenyl)-2-(methylsulfonyl)pyrimidine]: the IC50 was at most 1 µM.

`CC1CCCN1c1nc(-c2ccc(F)c(F)c2)cc(N2CCN(c3nccnc3Cl)C[C@H]2C)n1` (stereo partly shown) [Example 821, 4-[4-(3-chloropyrazin-2-yl)-2-methylpiperazin-1-yl]-6-(3,4-difluorophenyl)-2-(2-methylpyrrolidin-1-yl)pyrimidine]: the concentration for half-maximal inhibition (IC50) is at most 1 µM.

For the molecule `Fc1ccc(-c2cc(N3CCN(c4ncccc4C(F)(F)F)CC3)nc(C3CCNCC3)n2)cc1Cl` [Example 871, 4-(3-chloro-4-fluorophenyl)-2-piperidin-4-yl-6-{4-[3-(trifluoromethyl)pyridin-2-yl]piperazin-1-yl}pyrimidine], the IC50 is at most 1 µM.

Still in this test, the particulars now being: determined as described in Example 6 (calcium mobilization, antagonist activity); Table II.
On to `CCOc1cc(-c2cc(N3CCN(c4ncccc4C(F)(F)F)CC3)nc(N3CCOCC3)n2)ccn1` [Example 577, 4-(4-(2-ethoxypyridin-4-yl)-6-{4-[3-(trifluoromethyl)pyridin-2-yl]piperazin-1-yl}pyrimidin-2-yl)morpholine], for which the IC50 is at most 1 µM.

Turning to `O=C1CCC(=O)N1c1nc(-c2ccc(F)c(Cl)c2)cc(N2CCN(c3ncccc3C(F)(F)F)CC2)n1` [Example 680, 1-(4-(3-chloro-4-fluorophenyl)-6-{4-[3-(trifluoromethyl)pyridin-2-yl]piperazin-1-yl}pyrimidin-2-yl)pyrrolidine-2,5-dione], the IC50 is at most 1 µM.

For the molecule `CC(C)N(C)c1nc(-c2ccc(F)c(Cl)c2)cc(N2CCN(c3ncccc3Cl)CC2)n1` [Example 725, 4-(3-chloro-4-fluorophenyl)-6-[4-(3-chloropyridin-2-yl)piperazin-1-yl]-N-isopropyl-N-methylpyrimidin-2-amine], the IC50 was at most 1 µM.

In the case of `CCN(CC)c1nc(-c2ccc(C)nc2)cc(N2CCN(c3ncccc3C(F)(F)F)CC2)n1` [Example 607, N,N-diethyl-4-(6-methylpyridin-3-yl)-6-{4-[3-(trifluoromethyl)pyridin-2-yl]piperazin-1-yl}pyrimidin-2-amine], the IC50 was at most 1 µM.

For the molecule `CC(=N)N1CCN(c2nc(-c3ccc(F)c(C)c3)cc(N3CCN(c4ncccc4C(F)(F)F)CC3)n2)CC1` [Example 657, 1-[4-(4-(4-fluoro-3-methylphenyl)-6-{4-[3-(trifluoromethyl)pyridin-2-yl]piperazin-1-yl}pyrimidin-2-yl)piperazin-1-yl]ethanimine], the IC50 is at most 1 µM.

For the molecule `CC(=N)N1CCN(c2nc(-c3ccc(F)c(Cl)c3)cc(N3CCN(c4ncccc4C(F)(F)F)CC3)n2)CC1` [Example 663, 1-[4-(4-(3-chloro-4-fluorophenyl)-6-{4-[3-(trifluoromethyl)pyridin-2-yl]piperazin-1-yl}pyrimidin-2-yl)piperazin-1-yl]ethanimine], the IC50 is at most 1 µM.

Turning to `Cc1cc(-c2cc(N3CCN(c4ncccc4C(F)(F)F)CC3)nc(N(C(C)C)S(=O)(=O)C(C)C)n2)ccc1F` [Example 692, N-(4-(4-fluoro-3-methylphenyl)-6-{4-[3-(trifluoromethyl)pyridin-2-yl]piperazin-1-yl}pyrimidin-2-yl)-N-isopropylpropane-2-sulfonamide], the IC50 is at most 1 µM.

On to `Cc1cc(-c2cc(N3CCN(c4ncccc4C(F)(F)F)CC3)nc(N(CCO)C(C)C)n2)ccc1F` [Example 687, 2-[(4-(4-fluoro-3-methylphenyl)-6-{4-[3-(trifluoromethyl)pyridin-2-yl]piperazin-1-yl}pyrimidin-2-yl)(isopropyl)amino]ethanol], for which the IC50 is at most 1 µM.

Regarding `Cc1cc(-c2cc(N3CCN(c4ncccc4F)CC3)nc(N3CCCC3C)n2)ccc1F` (stereo not shown) [Example 708, 4-(4-fluoro-3-methylphenyl)-6-[4-(3-fluoropyridin-2-yl)piperazin-1-yl]-2-(2-methylpyrrolidin-1-yl)pyrimidine], the IC50 was at most 1 µM.
